Legend:
[1] = tested on: total tau levels in HeLa-V5-tau cells; assay: Total tau by western blotting in HeLa-V5-tau cells treated with compounds; assay type: cell-based; settings: 10 μM, 6 hours
Experimental: (§1) Brain homogenates and cultured cells were lysed with RIPA buffer (50 mM Tris pH 7.4, 150 mM NaCl, 2 mM ethlenediaminetetraacetic acid, 1% NP-40, 0.1% sodium dodecyl sulfate) plus protease and phosphatase inhibitors. Proteins were extracted and centrifuged at 15000 rpm for 15 min at 4° C., and RIPA insoluble fractions were lysed with 5% SDS with 1% β-mercaptoethanol, 50 mM Tris-HCl pH 6.8, 12.5 mM EDTA, 10% glycerol, and 0.02% bromophenol blue. Supernatants were used for western blot analysis. […]. co-IP experiments were carried out from NP40 lysates or indicated buffers with preclearing with IgG beads followed by IP with IgG beads alone or IgG beads+indicated antibodies, extensive washing (5×) with the original buffer, and Western blotting on SDS-PAGE. Sarkosyl extraction was performed as previously described (Hasegawa M, et al. (2007) Brain 130(Pt 5):1386-1394). Briefly, brain homogenates were lysed with A68 buffer containing 10 mM Tris-HCl, pH 7.4, 0.8M NaCl, 10% Sucrose, 1 mM EGTA). Samples were centrifuged at 400 g for 20 min at 4° C., and 1% sarkosyl was added to the collected supernatants. The samples were incubated for 1.5 h and centrifuged at 80,000 g for 30 min at room temperature. The pellets were resuspended in 100 ul of 50 mM Tris-HCl, pH 7.4.
(n=4, one-way ANOVA, post hoc Dunnett's, **P<0.005, ***P<0.0005).

[2] = tested on: HT7 (total human tau) in Tau-P301S hippocampal primary neurons; assay: HT7 staining of DIV21 hippocampal primary neurons from Tau-P301S mice treated with compounds; assay type: cell-based; settings: 20 μM, 6 hours
Experimental: Primary mouse hippocampal and cortical neuronal cultures were previously described (Woo J A, et al. (2019) Commun Biol 2:112; Woo J A, et al. (2017) Hum Mol Genet 26(20):3973-3988; Woo J A, et al. (2015) Cell Death Differ 22(6):1069-1070). Briefly, primary neurons were prepared from P0 mice. Both hippocampus and cortex were dissected separately in HBSS and digested with trypsin. Neurons were plated on glass coverslips coated with poly-D-lysine (Sigma-Aldrich, St Louis, MO, USA) and maintained in neurobasal medium with glutamax (Invitrogen, Carlsbad, CA, USA) and B27 supplement (Invitrogen, Carlsbad, CA, USA).
Cells were fixed with 4% paraformaldehyde for 15 min at room temperature and washed with 0.2% triton in TBS and blocked using 3% BSA with 0.1% triton x-100 for 1 hr, incubated with primary antibodies for overnight at 4° C. and fluorescently labeled secondary antibodies for 45 min at room temperature. […] Images were captured with the Olympus FV10i confocal microscope (Tokyo, Japan), and the immunoreactivities were quantified using the Image J software (National Institutes of Health, Bethesda, MD). Immunoreactivities were quantitated from every 12th serial section through an entire hippocampus. […] Regions of interest were chosen randomly, and investigators were blinded to experimental conditions during image acquisition and quantification. […]

[3] = target: T1, GFP-βarrestin2/Flag-βarrestin2 complexes (β-arrestin2 oligomerization) (Rattus norvegicus, UniProt P29067); assay: Proximity ligation assay (PLA) for GFP-βarrestin2/Flag-βarrestin2 complexes; assay type: cell-based; settings: 20 μM, 6 hours, Hela-V5-tau cells
T1 construct: expressed in transfected cells; host or cells: Hela-V5-tau cells
T1 sequence (P29067 whole entry, one chain of several): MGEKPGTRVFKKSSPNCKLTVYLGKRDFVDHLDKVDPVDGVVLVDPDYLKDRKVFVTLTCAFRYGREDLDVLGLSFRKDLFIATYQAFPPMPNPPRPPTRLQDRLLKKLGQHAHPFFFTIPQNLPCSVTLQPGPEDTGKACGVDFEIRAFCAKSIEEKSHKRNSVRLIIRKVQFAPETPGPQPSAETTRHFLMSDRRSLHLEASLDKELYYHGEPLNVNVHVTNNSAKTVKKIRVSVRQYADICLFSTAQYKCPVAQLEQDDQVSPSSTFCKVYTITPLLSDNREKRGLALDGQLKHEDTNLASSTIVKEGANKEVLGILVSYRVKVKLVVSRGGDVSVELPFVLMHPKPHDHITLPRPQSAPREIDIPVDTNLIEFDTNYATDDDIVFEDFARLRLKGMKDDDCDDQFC
Experimental: The assay was performed using commercially available reagents (Duolink, Sigma-Aldrich, St Louis, MO), with transfection of Hela V5-tau cells with WT β-arrestin2-flag and β-arrestin2-myc, without and with the mutant β-arrestin2 ΔIP6C or β-arrestin2 ΔIP6N constructs. Cells were fixed with 4% paraformaldehyde for 15 min at room temperature and washed with 0.2% triton in TBS. After washing, cells were blocked with 0.2% Triton in 3% Normal goat serum for 1 hour at room temperature. After applying primary antibodies overnight at 4° C., cells were washed and incubated with the PLA probes at 37° C. (1 h), washed with buffer A, incubated with ligation solution at 37° C. (30 min), washed with washing buffer A, incubated with amplification solution at 37° C. (100 min), and washed with washing buffer B before mounting.
FIGS. 28A and 28B show compounds C2 and C2 inhibit β-arrestin2 oligomerization. Hela-V5-tau cells were transfected with GFP-βarrestin2 and Flag-βarrestin2 and treated with 20 μM of 01, C1, or C2 for 6 hours.

[4] = target: T2, GFP-βarrestin2/Flag-βarrestin2 complexes (βarrestin2 self-interaction) (Rattus norvegicus, UniProt P29067); assay: Co-immunoprecipitation (co-IP) for GFP-βarrestin2/Flag-βarrestin2 complexes; assay type: cell-based; settings: 20 μM, 6 hours, Hela-V5-tau cells
T2 construct: expressed in transfected cells; host or cells: Hela-V5-tau cells
T2 sequence (P29067 whole entry, one chain of several): as above
Experimental: as §1
FIGS. 28A and 28B show compounds C2 and C2 inhibit β-arrestin2 oligomerization. […]

[5] = tested on: sarkosyl-insoluble tau in HeLa-V5-tau cells; assay: Sarkosyl soluble and insoluble fractionation of compound-treated HeLa-V5-tau cells; assay type: cell-based; settings: 20 μM, 6 hours
Experimental: as §1
FIGS. 27A and 27B show C1 and C2 compounds reduce pathogenic tau. […]

[6] = target: T3, β-arrestin2 oligomerization (Rattus norvegicus, UniProt P29067); assay: FRET assay CFP-βarrestin2/YFP-βarrestin2 in Hela-V5-tau cells; assay type: cell-based; settings: 20 μM, 30 min
T3 construct: expressed in transfected cells; host or cells: Hela-V5-tau cells
T3 sequence (P29067 whole entry): as the sequence (P29067 whole entry, one chain of several) above

[7] = tested on: phospho-tau; assay: Phospho-tau in tauP301S cortical primary neurons treated with GPCR agonists; assay type: cell-based, mice; settings: 10 μM
Description: FIGS. 20A to 20E show β-arrestin is required mGluR2 and β2AR mediated tau accumulation and phosphorylation. […] Representative blots are shown. […] Unpaired t-test. All data are presented as mean±SEM. […] Representative blots are shown. […] Unpaired t-test. All data are presented as mean±SEM. […] Representative blots are shown.
Based on these prior observations, the goal was to confirm these findings in tauP301S transgenic primary neurons and Hela cells stably expressing tau (V5-tagged 4R0N tau, Hela-V5-tau cells).

[8] = tested on: phospho-tau; assay: Phospho-tau immunoblot in Hela-V5-tau cells transfected with siRNA and treated with GPCR agonists; assay type: cell-based; settings: for tau phosphorylation: 10 μM, control siRNA or β-arrestin2 siRNA experiment (FIGS. 13E,13F); for phospho-tau response in β-arrestin1 siRNA transfected cells: β-arrestin1 knockdown; for tau phosphorylation, control siRNA transfected cells: β-arrestin1 siRNA experiments (FIGS. 13A-13D)
Experimental: FIGS. 13A to 13F show β-arrestin1 is required for mGluR2 and β2AR mediated increase in pathogenic tau. […] After transfection, cells were treated with either vehicle or 10 μM isoproterenol (Iso), lysed and immunoblotted for indicated proteins. Representative blots are shown. […] 1-way ANOVA with Dunnett's test. […] Representative blots are shown. […] 1-way ANOVA with Dunnett's test. […] 1-way ANOVA with Dunnett's test.
At present, it is not clear how different GPCRs, such as β2AR and mGluR2, and their agonists alter tau phosphorylation. One commonality of downstream signaling between these GPCRs is β-arrestin1 and β-arrestin2, which were initially identified and characterized based on its function to internalize and desensitize GPCRs, including β2AR (Lohse, M. J. et al. J Biol Chem (1992) 267:8558-8564) and mGluR2 (lacovelli, L. et al. Mol Pharmacol (2009) 75:991-1003). To test whether β-arrestin1 and/or β-arrestin2 is required for β2AR-mediated regulation of tau, Hela-V5-tau cells were transfected with control siRNA or β-arrestin1 siRNA and treated either vehicle or 10 μM Iso. […] Next, assessed was whether β-arrestin1 is required for mGluR2-mediated tau phosphorylation. […] Next, Hela-V5-tau cells were transfected with control siRNA or β-arrestin2 siRNA and treated vehicle, 10 μM Iso or LY-379,268.

[9] = tested on: tau phosphorylation; settings: cited from earlier work
[10] = tested on: tau phosphorylation; settings: cited from earlier work; remark: listed apart in the source

βarrestin2 oligomerization by PLA [3]	CFP to YFP FRET signal [6]	SMILES	total tau levels [1]	HT7 immunoreactivity (total human tau) [2]	βarrestin2 self-interaction by co-IP [4]	sarkosyl-insoluble tau levels [5]	phospho-tau [7]	tau phosphorylation [8]	phospho-tau response in β-arrestin1 siRNA transfected cells [8]	tau phosphorylation, control siRNA transfected cells [8]	tau phosphorylation in rats [9]	tau phosphorylation via ERK activation [10]
significant reduction	–	O=C(CNC(=O)c1ccc2c(c1)CCC2)NCc1cn2ccccc2n1 [C1, 2-[(2,3-dihydro-1H-inden-5-yl)formamido]-N-({imidazo[1,2-a]pyridin-2-yl}methyl)acetamide]	significantly decreased	significantly decreased	reduce βarrestin2 self-interaction to background levels	significantly decreased	–	–	–	–	–	–
significant reduction	reduces CFP to YFP FRET signal	Cc1ccc(NCCNC(=O)c2cc(-c3ccccc3)no2)nn1 [C2, N-{2-[(6-methylpyridazin-3-yl)amino]ethyl}-3-phenyl-1,2-oxazole-5-carboxamide]	significantly decreased	significantly decreased	reduce βarrestin2 self-interaction to background levels	significantly decreased	–	–	–	–	–	–
–	–	CC(C)NCC(O)c1ccc(O)c(O)c1 (stereo not drawn) [Isoproterenol]	–	–	–	–	significantly increased	increased	failed to respond	increased	markedly increases tau phosphorylation	–
–	–	N[C@@]1(C(=O)O)CO[C@H]2[C@H](C(=O)O)[C@H]21 [LY-379,268]	–	–	–	–	increased	increased	failure to respond	increased	–	increase tau phosphorylation

— patent US11896644B2, “Inhibition of beta-arrestin oligomerization in tauopathy” (UNIVERSITY OF SOUTH FLORIDA, priority 2020, dated 2024)
